Measurements reported in ChEMBL document CHEMBL1667742, “Angiotensin II receptor type 1 (AT1) selective nonpeptidic antagonists--a perspective” (Bioorg Med Chem, 2010).
Numbering of substitutions follows the chain as printed.

Tests used:
[1] = Displacement of radiolabeled angiotensin2 from angiotensin AT1 receptor in rat adrenal cortex membranes; format: cell membranes, Membrane
Rattus norvegicus [2] = test: Ratio of compound ED50 to losartan ED50 for po dosed renal hypertensive rat model; format: functional
[3] = target: T1, Type-1 angiotensin II receptor (Bos taurus) (UniProt P25104); test: Binding affinity to angiotensin AT1 receptor in bovine adrenal cortex membranes; format: cell membranes; conditions: Membrane
T1 sequence (whole entry): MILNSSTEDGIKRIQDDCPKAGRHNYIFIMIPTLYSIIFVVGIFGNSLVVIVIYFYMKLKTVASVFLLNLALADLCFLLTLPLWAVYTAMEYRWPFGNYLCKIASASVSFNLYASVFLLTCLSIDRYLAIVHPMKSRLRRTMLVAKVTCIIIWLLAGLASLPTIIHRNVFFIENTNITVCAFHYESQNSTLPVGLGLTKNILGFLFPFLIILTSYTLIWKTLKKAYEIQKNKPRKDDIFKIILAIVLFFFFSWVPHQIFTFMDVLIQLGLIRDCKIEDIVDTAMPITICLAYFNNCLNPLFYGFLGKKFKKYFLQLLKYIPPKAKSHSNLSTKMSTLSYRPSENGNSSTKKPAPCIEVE

[4] = Antagonist activity at angiotensin AT1 receptor in rat adrenal cortical membranes; format: functional, cell membranes
[5] = target: T2, Type-2 angiotensin II receptor (Homo sapiens, UniProt P50052); test: Binding affinity to angiotensin AT2 receptor
T2 sequence (P50052 whole entry): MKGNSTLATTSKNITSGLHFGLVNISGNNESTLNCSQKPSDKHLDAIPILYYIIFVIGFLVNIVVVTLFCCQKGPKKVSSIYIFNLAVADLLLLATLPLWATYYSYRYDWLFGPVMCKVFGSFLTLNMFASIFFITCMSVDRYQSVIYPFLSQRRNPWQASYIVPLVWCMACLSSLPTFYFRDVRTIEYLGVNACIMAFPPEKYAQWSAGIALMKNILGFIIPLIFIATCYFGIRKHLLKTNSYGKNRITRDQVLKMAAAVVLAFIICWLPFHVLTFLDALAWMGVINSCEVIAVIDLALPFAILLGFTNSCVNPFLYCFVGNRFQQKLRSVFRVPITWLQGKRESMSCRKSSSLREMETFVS

[6] = target: T3, Type-1 angiotensin II receptor (Oryctolagus cuniculus, UniProt P34976); test: (§1) Antagonist activity at angiotensin AT1 receptor in rabbit aorta; format: functional, tissue-based; conditions: read-out: pA2 (converted)
T3 sequence (P34976 whole entry): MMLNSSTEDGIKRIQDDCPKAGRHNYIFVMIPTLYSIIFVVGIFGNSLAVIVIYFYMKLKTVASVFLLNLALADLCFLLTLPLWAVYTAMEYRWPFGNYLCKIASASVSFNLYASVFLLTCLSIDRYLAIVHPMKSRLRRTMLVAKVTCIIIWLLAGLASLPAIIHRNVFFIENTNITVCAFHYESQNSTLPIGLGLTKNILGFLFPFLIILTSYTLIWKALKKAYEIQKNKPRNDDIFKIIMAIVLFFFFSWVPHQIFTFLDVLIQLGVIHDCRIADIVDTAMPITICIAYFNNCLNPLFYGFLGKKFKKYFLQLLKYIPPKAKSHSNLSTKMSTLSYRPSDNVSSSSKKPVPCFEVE

[7] = target: T4, Type-1 angiotensin II receptor (Homo sapiens, UniProt P30556); test: Antagonist activity at angiotensin AT1 receptor; format: functional; conditions: for Kb: read-out: pA2 (converted)
T4 sequence (P30556 whole entry): T3 sequence (P34976 whole entry) with M2I, A49V, V254I, V270I, H272R, K311R, S349T, V353A

[8] = target: T4, Type-1 angiotensin II receptor; test: Binding affinity to angiotensin AT1 receptor
[9] = target: T3, Type-1 angiotensin II receptor; test: Antagonist activity at angiotensin AT1 receptor in rabbit aorta assessed as reduction of angiotensin 2-induced contractile response; format: functional, tissue-based; conditions: read-out: pA2 (converted)
[10] = Antagonist activity at angiotensin AT1 receptor in rat liver membranes; format: functional, cell membranes, Membrane
Rattus norvegicus [11] = test: Antihypertensive activity in iv dosed renal hypertensive rat model; format: functional
[12] = Binding affinity to angiotensin AT1 receptor in rat liver membranes; format: cell membranes, Membrane
[13] = Binding affinity to angiotensin AT1 receptor in rat adrenal cortical membranes; format: cell membranes
Rattus norvegicus [14] = test: Antihypertensive activity in po dosed conscious rat; format: functional; conditions: read-out: ID50 (the source's name)
[15] = target: T3, Type-1 angiotensin II receptor; test: Antagonist activity at angiotensin AT1 receptor in rabbit aortic strip assessed as inhibition of angiotensin 2-induced contractile response; format: functional
[16] = Antagonist activity at angiotensin AT1 receptor in rat aorta; format: functional, tissue-based
[17] = target: T5, Type-1 angiotensin II receptor (Oryctolagus cuniculus) (UniProt P34976); test: as §1; format: functional, tissue-based
T5 sequence (whole entry): T3 sequence (P34976 whole entry)

[18] = Selectivity ratio of IC50 for angiotensin AT1 receptor to IC50 for angiotensin AT2 receptor
[19] = Oral bioavailability in rat; format: ADME, organism-based; conditions: in vivo

SMILES: CCCc1nc(CC)c(C(=O)O)n1Cc1ccc(-c2ccccc2-c2nn[nH]n2)cc1
- IC50 [1]: 6 nM
- Ratio ED50 (Rattus norvegicus [2]): 20

SMILES: CCCc1cc(=O)n(CC(=O)N(C)C)c(=O)n1Cc1ccc(-c2ccccc2-c2nn[nH]n2)cc1
- Activity [3]: 9.3 nM
- IC50 [4]: 0.65 nM

SMILES: CCCc1nc(CC)c(C=O)n1Cc1ccc(-c2ccccc2-c2nn[nH]n2)cc1
- IC50 [1]: 2.1 nM

SMILES: CCCCc1nc(Cl)c2n1C(c1ccc(-c3ccccc3-c3nnn[nH]3)cc1)CC(C(=O)O)=C2 (centres undefined)
- IC50 [5]: 10 nM

SMILES: CCc1cc(OCc2ccc(-c3ccccc3-c3nnn[nH]3)cc2)c2c(n1)CCCC2
- Kb [6]: 0.0501 nM

SMILES: CCc1cc(OCc2ccc(-c3ccccc3-c3nnn[nH]3)cc2)c2ccccc2n1
- Kb [6]: 5.01 nM

SMILES: CCCCc1nc(Cc2ccc(-c3ccccc3-c3nnn[nH]3)cc2)n(CCCC)n1
- Kb [7]: 3.16 nM
- IC50 [8]: 16 nM

SMILES: CCCCCc1nc(SCc2ccc(-c3ccccc3C(=O)O)cc2)nn1Cc1ccc(-c2ccccc2C(=O)O)cc1
- Kb [9]: 3.98 nM

SMILES: C[C@@H]1CN(Cc2ccc(-c3ccccc3-c3nn[nH]n3)cc2)C[C@H](C)O1
- Kb [7]: 126 nM

SMILES: CCc1cc(Sc2ccc(-c3ccccc3-c3nn[nH]n3)cc2)c2ncccc2n1
- IC50 [10]: 20 nM

SMILES: CCCc1nc2ccccc2n1C(F)(F)C(O)c1ccc(-c2ccccc2-c2nnn[nH]2)cc1 (centres undefined)
- ED30 (Rattus norvegicus [11]): 2 mg/kg
- Ki [8]: 29 nM
- Ki [5]: 480 nM

SMILES: CCc1nc2c(C)cc(C)nc2n1Cc1ccc(-c2c(-c3nn[nH]n3)cnc3ccccc23)cc1
- IC50 [12]: 0.4 nM

SMILES: CCCCc1nc(C)n(Cc2sccc2C(=O)OC)c(=O)c1Cc1ccc(-c2ccccc2-c2nnn[nH]2)cc1
- Ki [13]: 0.9 nM

SMILES: CCc1nc2c(CC)cn(Cc3ccc(-c4ccccc4-c4nn[nH]n4)cc3)n2n1
- Kb [6]: 1.51 nM

SMILES: CCCCc1cn(CCCC)c(=O)n1Cc1ccc(-c2ccccc2-c2nnn[nH]2)cc1 [SC-51895]
- Kb [7]: 2.24 nM
- IC50 [8]: 12 nM

SMILES: CCOc1nc2cccc(C(=O)O)c2n1Cc1ccc(-c2ccccc2-c2noc(=O)[nH]2)cc1 [AZILSARTAN]
- Activity [3]: 4.2 nM
- ED50 (Rattus norvegicus [14]): 0.04 mg/kg

SMILES: CCCCc1nc2cccc(C(=O)O)c2n1Cc1ccc(-c2ccccc2-c2nnn[nH]2)cc1
- IC50 [15]: 0.055 nM

SMILES: CCCCc1c(Cc2ccc(-c3ccccc3-c3nn[nH]n3)cc2)[n+]([O-])c2ccccc2[n+]1[O-]
- Ki [13]: 2.6 nM
- Kb [16]: 2.1 nM

SMILES: CCCCc1nc(Cl)c2n1C(c1ccc(-c3ccccc3-c3nnn[nH]3)cc1)CC=C2C(=O)O (centres undefined)
- IC50 [5]: 50 nM

SMILES: CCc1nc2c(n1Cc1ccc(-c3ccccc3-c3nn[nH]n3)cc1)/C(=C/C(=O)O)CCCC2
- pD2 [17]: 9.91
- IC50 [12]: 5.5 nM

SMILES: CCCc1nc2c(n1Cc1ccc(-c3ccccc3-c3nnn[nH]3)cc1)C(=O)CCCC2 [PRATOSARTAN]
- Kb [6]: 0.0912 nM

SMILES: CCCCCCC(C(=O)O)n1cnc(NC(=O)c2cccc(O)c2C(=O)O)c1 (centres undefined)
- Kb [6]: 100 nM

SMILES: CCCCc1cn(CCCC)c(=O)n1Cc1ccc(-c2ccccc2-c2nnn[nH]2)nc1 [SC-52892]
- Kb [7]: 2.09 nM
- IC50 [8]: 6.5 nM

SMILES: CCCCc1nc2ccc([C@]3(C)C[C@H]4CCCN4O3)cc2c(=O)n1Cc1ccc(-c2ccccc2-c2nn[nH]n2)cc1
- Kb [7]: 0.0126 nM

SMILES: CCCCc1nc2cccnc2n1-c1ccc(CCO/C(O)=C2\C(C(C)C)=NC(C)=C(C(=O)Nc3cccnc3)C2c2ccccc2Cl)cc1 (centres undefined)
- IC50 [4]: 0.6 nM

SMILES: Cc1nc(Sc2ccc(-c3ccccc3-c3nn[nH]n3)cc2)c2ccccc2n1
- IC50 [10]: 350 nM

SMILES: Cc1ccnc2c1nc(C1CC1)n2Cc1ccc(-c2ccccc2C(=O)O)cc1
- Kb [6]: 2 nM
- IC50 [13]: 52 nM

SMILES: CCCCC1=NC(Cl)=C(C(=O)O)C(C)N1Cc1ccc(-c2ccccc2-c2nnn[nH]2)cc1 (centres undefined)
- Ki [8]: 1 nM

SMILES: CCCCc1nnc(SCc2ccccc2C(=O)O)n1Cc1ccc(-c2ccccc2-c2nn[nH]n2)cc1
- IC50 [8]: 1.4 nM

SMILES: COc1c(OCc2ccc(-c3ccccc3-c3nn[nH]n3)cc2)cc(C)nc1C
- Kb [9]: 1.51 nM
- pKi [12]: 8.7

SMILES: CCCc1nc(C(F)(F)C(F)(F)F)c(C(=O)O)n1Cc1ccc(-c2ccccc2-c2nn[nH]n2)cc1
- IC50 [1]: 3.1 nM

SMILES: CCc1nc2ccc(NC(=O)N(C)C(C)C)cc2c(=O)n1Cc1ccc(-c2ccccc2S(=O)(=O)NC(=O)OCCC2CC2)cc1F
- Ratio IC50 [18]: 2

SMILES: CCCCC(=O)N(Cc1ccc(-c2ccccc2-c2nnn[nH]2)cc1)[C@H](C(=O)O)C(C)C
- IC50 [16]: 2.7 nM

SMILES: CCCCc1nc2cccnc2n1Cc1ccc(-n2cccc2-c2nnn[nH]2)cc1
- Kb [6]: 3.55 nM
- IC50 [16]: 0.6 nM

SMILES: CCOc1nc2cccc(C(=O)O)c2n1Cc1ccc(-c2ccccc2-c2nsc(O)n2)cc1
- Activity [3]: 2.5 nM

SMILES: CCCCc1nc2ccc(C(C)(C)OC)cc2c(=O)n1Cc1ccc(-c2ccccc2-c2nn[nH]n2)cc1 [CL-329167]
- Kb [6]: 9.77 nM
- Kb [7]: 0.0126 nM
- IC50 [8]: 6 nM

SMILES: CCc1nn(Cc2ccc(-c3ccccc3-c3nn[nH]n3)cc2)/c(=N/C(=O)C2=C(C(=O)[O-])CCC2)s1.[K+]
- IC50 [7]: 0.4 nM
- Ratio ED50 (Rattus norvegicus [2]): 10

SMILES: CCCCc1cn([C@H]2[C@H](C)CCC[C@@H]2C)c(=O)n1Cc1ccc(-c2ccccc2-c2nnn[nH]2)nc1 [SC-55634]
- Kb [7]: 0.501 nM
- IC50 [8]: 4.9 nM

SMILES: CCCCc1nc2ccccc2[n+]([O-])c1Oc1ccc(-c2ccccc2-c2nn[nH]n2)cc1
- Ki [5]: 4.5 nM

SMILES: CCCc1nc(C)n2[nH]c(=O)nc2c1Cc1ccc(-c2ccccc2-c2nnn[nH]2)cc1
- Ki [8]: 24 nM

SMILES: CCc1nc2ccc(N(Cc3ccccc3)C(=O)c3cccs3)cc2c(=O)n1Cc1ccc(-c2ccccc2-c2nn[nH]n2)cc1
- Ratio IC50 [18]: 3000

SMILES: CCCCc1nc2ccn(CC(=O)N3CCCCC3)c(=O)c2n1Cc1ccc(-c2ccccc2S(=O)(=O)NC(=O)OCc2ccccc2)cc1F
- IC50 [8]: 4.7 nM
- IC50 [5]: 3.5 nM
- Ratio IC50 [18]: 0.74

SMILES: CCCCc1nc(CCCC)n(Cc2ccc(-c3ccccc3-c3nnn[nH]3)cc2)n1
- Kb [7]: 2 nM
- IC50 [8]: 5.6 nM

SMILES: CCc1nc2c(C)cc(C)nc2n1Cc1ccc(-c2ccccc2S(=O)(=O)NC(=O)c2ccccc2)cc1
- Kb [6]: 0.0501 nM

SMILES: CCOc1nc2cccc(C(=O)OC(C)OC(=O)OC3CCCCC3)c2n1Cc1ccc(-c2ccccc2-c2nnn[nH]2)cc1 (centres undefined) [CANDESARTAN CILEXETIL]
- bioavailability [19]: 28%
- IC50 [15]: 200 nM
- ED50 (Rattus norvegicus [14]): 0.06 mg/kg

SMILES: CCCSC1=NS(=O)(=O)c2ccc(C(=O)O)cc2N1Cc1ccc(-c2ccccc2-c2nn[nH]n2)cc1
- Kb [17]: 0.08 nM
- Ki [13]: 8.5 nM
